Laboratory results published in patent US10308617B2, “Triazole benzamide derivatives and the compositions and methods of treatment regarding the same” (An2H Discovery Limited, priority 2016, dated 2019).

Tested on: subcutaneous HCT-116 (colon cancer) xenograft
Test: In Vivo Cancer Xenograft Assay, HCT-116
Set-up: species or system nude mice
Conditions: 5 or 10 mg/kg daily IP, tumor volume to day 26
Procedure: Compound F was evaluated for in vivo therapeutic efficacy in the treatment of subcutaneous HCT-116 (colon cancer) and Calu-6 (lung cancer) xenograft models in nude mice.
Each mouse was inoculated subcutaneously at the flank region with either HCT-116 or Calu-6 tumor cells ([…]) in 0.1 ml of 1×PBS mixed with Matrigel (1:1) for tumor development and xenotransplantation.
Twenty (20) animals with approx […] tumors were selected for HCT-116 follow up experiment and randomly placed into Groups 1, 2, 3, and 4, wherein Group 1 was for mice administered with a vehicle negative control; Group 2 was positive control of Mice treated with Bevacizumab at 5 mg/kg every three days; Group 3 was mice treated with 5 mg/kg of Compound f daily for up to 20 days; and Group 4 was mice treated with 10 mg/kg of Compound F daily for up to 20 days. The vehicle with or without drug was administered to the mouse by intraperitoneal injection. […]
After tumor cells inoculation, the animals were checked daily for morbidity and mortality. […] Death and observed clinical signs were recorded. Tumor volumes were measured every three days in two dimensions using an electronic caliper, and the volume data are expressed in mm^3 using the formula: V=0.5 a×b2 where a and b are the long and short diameters of the tumor, respectively. Tumor volume average was then recorded for each day for groups 1-4 until day 26. […]

Q: `Cc1ccccc1C(=O)Nc1nc(NC(=O)c2ccccc2C)n(-c2ccccc2)n1` [Compound F, 2-methyl-N-[5-[(2-methylbenzoyl)amino]-1-phenyl-1,2,4-triazol-3-yl]benzamide] was tested. Which “delay of subcutaneous HCT-116 tumor growth” value did it give?
A: The value was “effective of delaying growth”.
